In patent US8969516B2, “Method of hydrolysis of peptide bond” (priority 2006, dated 2015):

Test: MALDI-TOF screening of Ni^2+ dependent hydrolysis in a combinatorial peptide library
Format: physicochemical
Conditions: Ni^2+ 2 mM, pH 8.2, 10 mM Tris, score=24/tm
Procedure, shortened: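 The screen used 1 mM peptide mixtures in 10 mM Tris, pH 8.2, with 2 mM Ni2+ at two temperatures, 37 °C and 45 °C. Product appearance and substrate decline were monitored visually by MALDI-TOF over 8 h. Scores for X and Z were then summed by row and column to rank substitutions.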

[1] = CH3CO-Gly-Ala-Thr-X-His-Z-Lys-Phe-Leu-NH2 library, 37° C.
[2] = CH3CO-Gly-Ala-Thr-X-His-Z-Lys-Phe-Leu-NH2 library, 45° C.
[3] = CH3CO-Gly-Ala-Ser-X-His-Z-Lys-Phe-Leu-NH2 library, 37° C.
[4] = CH3CO-Gly-Ala-Ser-X-His-Z-Lys-Phe-Leu-NH2 library, 45° C.

| Substance | hydrolysis score from MALDI-TOF screening [1] | hydrolysis score from MALDI-TOF screening [2] | hydrolysis score from MALDI-TOF screening [3] | hydrolysis score from MALDI-TOF screening [4] |
| --- | --- | --- | --- | --- |
| Ac-GATAHFKFL-NH2 [TAHF] | 0 (a score of 0 if no trace of the product of hydrolysis was seen after 8 hours of incubation) | 0 (a score of 0 if no trace of the product of hydrolysis was seen after 8 hours of incubation) | – | – |
| Ac-GATVHWKFL-NH2 [TVHW] | 0 (a score of 0 if no trace of the product of hydrolysis was seen after 8 hours of incubation) | 3 (a score of 3 for detection at 8 hours) | – | – |
| Ac-GASVHDKFL-NH2 [SVHD] | – | – | 0 (a score of 0 if no trace of the product of hydrolysis was seen after 8 hours of incubation) | 0 (a score of 0 if no trace of the product of hydrolysis was seen after 8 hours of incubation) |
| Ac-GATAHPKFL-NH2 [TAHP] | 0 (a score of 0 if no trace of the product of hydrolysis was seen after 8 hours of incubation) | 0 (a score of 0 if no trace of the product of hydrolysis was seen after 8 hours of incubation) | – | – |
| Ac-GASRHEKFL-NH2 [SRHE] | – | – | 0 (a score of 0 if no trace of the product of hydrolysis was seen after 8 hours of incubation) | 3 (a score of 3 for detection at 8 hours) |
| Ac-GATIHNKFL-NH2 [TIHN] | 0 (a score of 0 if no trace of the product of hydrolysis was seen after 8 hours of incubation) | 0 (a score of 0 if no trace of the product of hydrolysis was seen after 8 hours of incubation) | – | – |
| Ac-GATNHLKFL-NH2 [TNHL] | 0 (a score of 0 if no trace of the product of hydrolysis was seen after 8 hours of incubation) | 0 (a score of 0 if no trace of the product of hydrolysis was seen after 8 hours of incubation) | – | – |
| Ac-GATQHDKFL-NH2 [TQHD] | 0 (a score of 0 if no trace of the product of hydrolysis was seen after 8 hours of incubation) | 0 (a score of 0 if no trace of the product of hydrolysis was seen after 8 hours of incubation) | – | – |
| Ac-GATWHTKFL-NH2 [TWHT] | 0 (a score of 0 if no trace of the product of hydrolysis was seen after 8 hours of incubation) | 0 (a score of 0 if no trace of the product of hydrolysis was seen after 8 hours of incubation) | – | – |
| Ac-GASRHFKFL-NH2 [SRHF] | – | – | 4 (a score of 4 for detection at 6 hours) | 4 (a score of 4 for detection at 6 hours) |
| Ac-GASPHHKFL-NH2 [SPHH] | – | – | 0 (a score of 0 if no trace of the product of hydrolysis was seen after 8 hours of incubation) | 0 (a score of 0 if no trace of the product of hydrolysis was seen after 8 hours of incubation) |
| Ac-GASFHIKFL-NH2 [SFHI] | – | – | 4 (a score of 4 for detection at 6 hours) | 6 (a score of 6 for detection at 4 hours) |
| Ac-GASHHHKFL-NH2 [SHHH] | – | – | 0 (a score of 0 if no trace of the product of hydrolysis was seen after 8 hours of incubation) | 0 (a score of 0 if no trace of the product of hydrolysis was seen after 8 hours of incubation) |
| Ac-GATHHPKFL-NH2 [THHP] | 0 (a score of 0 if no trace of the product of hydrolysis was seen after 8 hours of incubation) | 0 (a score of 0 if no trace of the product of hydrolysis was seen after 8 hours of incubation) | – | – |
| Ac-GASLHLKFL-NH2 [SLHL] | – | – | 3 (a score of 3 for detection at 8 hours) | 0 (a score of 0 if no trace of the product of hydrolysis was seen after 8 hours of incubation) |
| Ac-GATNHIKFL-NH2 [TNHI] | 0 (a score of 0 if no trace of the product of hydrolysis was seen after 8 hours of incubation) | 0 (a score of 0 if no trace of the product of hydrolysis was seen after 8 hours of incubation) | – | – |
| Ac-GASKHQKFL-NH2 [SKHQ] | – | – | 0 (a score of 0 if no trace of the product of hydrolysis was seen after 8 hours of incubation) | 0 (a score of 0 if no trace of the product of hydrolysis was seen after 8 hours of incubation) |
| Ac-GATFHYKFL-NH2 [TFHY] | 0 (a score of 0 if no trace of the product of hydrolysis was seen after 8 hours of incubation) | 0 (a score of 0 if no trace of the product of hydrolysis was seen after 8 hours of incubation) | – | – |
| Ac-GASPHDKFL-NH2 [SPHD] | – | – | 0 (a score of 0 if no trace of the product of hydrolysis was seen after 8 hours of incubation) | 0 (a score of 0 if no trace of the product of hydrolysis was seen after 8 hours of incubation) |
| Ac-GASHHTKFL-NH2 [SHHT] | – | – | 0 (a score of 0 if no trace of the product of hydrolysis was seen after 8 hours of incubation) | 0 (a score of 0 if no trace of the product of hydrolysis was seen after 8 hours of incubation) |
| Ac-GATRHLKFL-NH2 [TRHL] | 6 (a score of 6 for detection at 4 hours) | 12 (a score of 12, if it was seen to be partially hydrolysed at 2 hours) | – | – |
| Ac-GASRHAKFL-NH2 [SRHA] | – | – | 3 (a score of 3 for detection at 8 hours) | 6 (a score of 6 for detection at 4 hours) |
| Ac-GATRHYKFL-NH2 [TRHY] | 4 (a score of 4 for detection at 6 hours) | 6 (a score of 6 for detection at 4 hours) | – | – |
| Ac-GASNHTKFL-NH2 [SNHT] | – | – | 0 (a score of 0 if no trace of the product of hydrolysis was seen after 8 hours of incubation) | 0 (a score of 0 if no trace of the product of hydrolysis was seen after 8 hours of incubation) |
| Ac-GATVHGKFL-NH2 [TVHG] | 0 (a score of 0 if no trace of the product of hydrolysis was seen after 8 hours of incubation) | 0 (a score of 0 if no trace of the product of hydrolysis was seen after 8 hours of incubation) | – | – |
| Ac-GASYHHKFL-NH2 [SYHH] | – | – | 4 (a score of 4 for detection at 6 hours) | 4 (a score of 4 for detection at 6 hours) |
| Ac-GASWHRKFL-NH2 [SWHR] | – | – | 3 (a score of 3 for detection at 8 hours) | 6 (a score of 6 for detection at 4 hours) |
| Ac-GATLHFKFL-NH2 [TLHF] | 0 (a score of 0 if no trace of the product of hydrolysis was seen after 8 hours of incubation) | 0 (a score of 0 if no trace of the product of hydrolysis was seen after 8 hours of incubation) | – | – |
| Ac-GATRHKKFL-NH2 [TRHK] | 6 (a score of 6 for detection at 4 hours) | 12 (a score of 12, if it was seen to be partially hydrolysed at 2 hours) | – | – |
| Ac-GASQHEKFL-NH2 [SQHE] | – | – | 0 (a score of 0 if no trace of the product of hydrolysis was seen after 8 hours of incubation) | 0 (a score of 0 if no trace of the product of hydrolysis was seen after 8 hours of incubation) |
